Test results as given in US9499543B2, “Polymorph forms” (RaQualia Pharma Inc., priority 2013, dated 2016).

Assays:
[1] = Hygroscopicity study by dynamic vapor sorption (DVS) analysis; format: physicochemical; settings: under 40%, 80%, and 90% relative humidity (RH) at 25 °C, comparing with compound prepared in EXAMPLE 2
Description: Hygroscopicity study by dynamic vapor sorption analysis (DVS)
Hygroscopicity study is performed using Surface Measurement Systems DVS-1. The sample is placed on a microbalance in the instrument and the weight change during the sorption/desorption cycle at 25° C. is monitored. One of the sorption/desorption programs consists of a sorption scan from 0 to 95% relative humidity (RH) and a desorption scan from 95 to 10% RH. The other consists of a sorption scan from 40 to 95% RH and desorption scan from 95 to 0% RH, followed by a second sorption scan from 0 to 40% RH. Both programs are carried out at 5% RH increments and the sample is allowed to equilibrate for 360 minutes or until equilibration had been attained at each step. At the end of the DVS experiment the sample is measured by PXRD.

[2] = Photostability / storage stability study; format: physicochemical
Description: Photostability samples are stored in open dishes with quartz glass covers and a second set of 25° C./60% RH, and 40° C./75% RH samples which are stored in open round amber glass bottles covered with gauze.

moisture gain [1]: < 2% | loss in potency ([2]; any of the stability samples over 3 months): No significant loss | changes in the appearance, the X-ray diffraction patterns, and IR spectra ([2]; storage over 3 months, photostability, 25°C/60% RH and 40°C/75% RH samples): no significant changes
SMILES: CN1N=C2CCN(C(=O)[C@@H](COCc3ccccc3)NC(=O)C(C)(C)N)C[C@@]2(Cc2ccccc2)C1=O.O=C(O)C(O)C(O)C(=O)O [Polymorph Form I, 2-amino-N-[2-(3a-(R)-benzyl-2-methyl-3-oxo-2,3,3a,4,6,7-hexahydro-pyrazolo[4,3-c]pyridin-5-yl)-1-(R)-benzyloxymethyl-2-oxo-ethyl]-isobutyramide L-tartrate Polymorph Form I]
